Values joined by “and” are separate entries in the source; they are usually repeats but may differ in a detail not shown here. Equal values may be shown once.
Tests used:
[1] = format: in vivo, Beagle dogs
Method: The objectives of this study were to evaluate the potential toxicity of 25HC3S when administered once daily by subcutaneous injection to Beagle dogs for 14 consecutive days. 25HC3S sodium salt in the vehicle (250 mg/mL hydroxypropyl-beta-cyclodextrin with 10 mM sodium phosphate buffer [approximate pH 7.6] in sterile water for irrigation) was administered via subcutaneous injection in the dorsoscapular area once daily for 14 consecutive days to 3 groups (Groups 2-4) of Beagle dogs. Dosage levels were 3, 10, and 30 mg/kg/day for Groups 2, 3, and 4, respectively. […] The dose volume was 1, 0.1, 0.33, and 1 mL/kg for Groups 1, 2, 3, and 4, respectively. Each group consisted of 4 males and 4 females. The animals were observed twice daily for mortality and moribundity. Clinical examinations (including injection site observations) were performed once daily for at least 6 days, including the day of randomization, prior to randomization, prior to dose administration, immediately following dose administration, and at approximately 2 hours following dose administration. Blood samples for toxicokinetic evaluation were collected from all animals prior to dosing (study day 0 only) and at 0.5, 1, 2, 4, 8, and 24 hours after dosing on study days 0 and 13.

[2] = human, in vivo
Method: This example describes a randomized, double-blind, placebo-controlled, safety and pharmacokinetic study of a parenteral formulation of 25HC3S. The study involved the administration of 25HC3S sodium salt to healthy subjects via intramuscular injections (IM) as i) single ascending doses (SAD) in the range of 30-300 mg and as ii) a multiple ascending dose (MAD) study using multiple IM doses of 150 mg administered daily for 5 days (see Table 13). All subjects were male, with an age range of 19-36 years.
In Part A of the study (SAD), a parenteral dose of 25HC3S or matching placebo was administered intramuscularly (IM) to cohorts of 6 healthy subjects (4 randomized to 25HC3S and two randomized to matching placebo on a double-blind basis). The initial dose was 30 mg and subsequent cohorts of 6 different subjects received doses of 90, 150, and 300 mg of 25HC3S. A total of 16 subjects received 25HC3S and 8 received placebo in Part A. In Part B (MAD), a parenteral dose of 150 mg 25HC3S or matching placebo was administered IM once daily for 5 days, altering injection sites, to a single cohort of 10 healthy subjects (8 randomized to 25HC3S and two randomized to matching placebo on a double-blind basis; see Table 14).
Safety assessments included periodic monitoring of routine vital signs, safety laboratory tests and 12 lead ECG collection. Subjects completed a screening phase, treatment and an end-of-study visit. Dose escalation to the next dose level in Part I and Part II of the study was undertaken following review of the preceding dose results.
Pain intensity (measured on a 0-10 numeric rating scale) was assessed after each injection, and the injection sites were examined for tenderness, redness, bruising, swelling and induration at specified time points after injection.

mice overdosed with APAP = experiment: Mortality in mice overdosed with APAP (600 mg/kg); format: in vivo, C57BL/6J mice; conditions: APAP 600 mg/kg ip; 25 mg/kg 25HC3S iv 0.5 hours after APAP; 5 days after overdose
Method: (§1) The ability of 25HC3S to treat symptoms of APAP overdose was examined. 12-week-old male C57BL/6J mice were fasted overnight and injected (intraperitoneally) with APAP: 600 mg/kg (high dose) for mortality studies or 350 mg/kg (low dose) for liver function and gene studies. Control mice received only vehicle (20% (v/v) a propylene glycol, 4% (w/v) cyclodextrin (powdered hydroxypropyl beta cyclodextrin in sterile 10% (w/v) glucose.
(§2) A composition comprising 25 mg/kg of 25HC3S sodium salt in vehicle was administered intravenously to the experimental mice 0.5 hours after APAP administration. Mortality was monitored in the high dose mice. In the low dose mice, the liver function markers aspartate aminotransferase (AST), alanine aminotransferase (ALT), alkaline phosphatase (ALK) and lactate dehydrogenase (LDH), were measured in serum. Impacts on gene expression were determined by Quantitative Real-time PCR. Membrane potentials were measured using JC1 staining and flow cytometry.

[3] = Solubility of 25HC3S in water as function of HPbCD or SBECD concentration at room temperature; format: physicochemical; conditions: for 25HC3S Solubility / Molar of 25HC3S: room temperature
Method: A total of six suspensions of 25HC3S sodium salt were prepared in water containing 0, 50, 100, 200, 250 and 400 mg/mL hydroxypropyl-β-cyclodextrin (HPbCD, hydroxypropyl betadex) or sulfobutyl ether β-cyclodextrin (SBECD, Captisol®). Both cyclodextrins are used in approved pharmaceutical products and are manufactured as Good Manufacturing Practice (GMP) excipients. Each suspension was agitated at room temperature, aliquots were centrifuged, and the supernatant solutions assayed for 25HC3S concentrations by a reverse phase HPLC method. The solubility data of 25HC3S as a function of HPbCD concentrations is in Table 1 and as a function of SBECD concentrations is in Table 2.

[4] = Solubility of 25HC3S in 10 mM sodium phosphate buffer pH 7.6 with HPbCD at 5, 15 and 25°C; format: physicochemical; conditions: 25°C/60% RH, supernatant
[5] = system: liver function markers ALT, AST, ALK, LDH; experiment: Liver function markers in serum of mice overdosed with APAP (350 mg/kg); format: in vivo, C57BL/6J mice; conditions: vehicle plus 25 mg/kg 25HC3S 0.5 hours after overdose, 24 hours after treatment
Method: as §1, §2
One group of low dose mice received treatment with 25HC3S in vehicle 0.5 hours after the overdose. In this group, liver function markers were assessed 24 hours after treatment. […] However, in mice treated with vehicle alone, the values were […] and in mice treated with vehicle plus 25 mg/kg of 25HC3S, the values were near normal. The differences in the measured values were statistically significant.

[6] = Compatibility of 25HC3S for Injection with container closure system; format: physicochemical; conditions: 10 mL glass vial, FluroTec coated stopper; up to 12 months 2-8°C, 6 months 25°C/60% RH and 40°C/75% RH, inverted
Method: 25HC3S for Injection is a sterile powder, for injection solution. The 25HC3S stability with the 10 mL glass vial and FluroTec® coated stopper was studied up to 12 months at 2-8° C., 6 months at 25° C./60% RH, and 6 months at 40° C./75% RH with vials stored in the inverted orientation.

C[C@H](CCCC(C)(C)O)[C@H]1CC[C@H]2[C@@H]3CC=C4C[C@@H](OS(=O)(=O)[O-])CC[C@]4(C)[C@H]3CC[C@]12C.[Na+] [25HC3S, 5-cholesten-3, 25-diol, 3-sulfate]
survival to the scheduled necropsy ([1]; Beagle dogs, sc 3, 10, 30 mg/kg/day, 14 days): All animals survived
injection site changes ([1]; dog, in vivo, sc): no injection site changes appeared directly attributable
mean AUClast ([1]; dog, in vivo, sc, 30 mg/kg/day): 19,877 ng*hr/mL
mean C. ([1]; dog, in vivo, sc, 30 mg/kg/day): 7,753 ng/mL
first time point with detectable drug levels [2]: 0.5 h
mean pain intensity (0-10 numeric rating scale) [2]: 0.8-3.5
time by which pain had resolved after injection [2]: ≤ 1 h
time of maximal pain intensity after injection [2]: 5 to 10 min
mice that had died (mice overdosed with APAP): one
25HC3S Solubility ([3]; 50 mg/mL HPbCD in water): 9.78 mg/mL
Molar of 25HC3S ([3]; 50 mg/mL HPbCD in water): 0.01938 Molar
25HC3S Solubility ([3]; 50 mg/mL SBECD in water): 6.03 mg/mL
Molar of 25HC3S ([3]; 50 mg/mL SBECD in water): 0.01195 Molar
25HC3S Solubility ([3]; 100 mg/mL HPbCD in water): 18.44 mg/mL
Molar of 25HC3S ([3]; 100 mg/mL HPbCD in water): 0.03654 Molar
25HC3S Solubility ([3]; 100 mg/mL SBECD in water): 9.86 mg/mL
Molar of 25HC3S ([3]; 100 mg/mL SBECD in water): 0.01954 Molar
25HC3S Solubility ([3]; 200 mg/mL HPbCD in water): 31.97 mg/mL
Molar of 25HC3S ([3]; 200 mg/mL HPbCD in water): 0.06334 Molar
25HC3S Solubility ([3]; 200 mg/mL SBECD in water): 21.24 mg/mL
Molar of 25HC3S ([3]; 200 mg/mL SBECD in water): 0.04208 Molar
25HC3S Solubility ([3]; 250 mg/mL HPbCD in water): 42.37 mg/mL
Molar of 25HC3S ([3]; 250 mg/mL HPbCD in water): 0.08395 Molar
25HC3S Solubility ([3]; 400 mg/mL HPbCD in water): 66 mg/mL and 65.18 mg/mL
Molar of 25HC3S ([3]; 400 mg/mL HPbCD in water): 0.1291 Molar
25HC3S Solubility ([3]; 400 mg/mL SBECD in water): 44.76 mg/mL
Molar of 25HC3S ([3]; 400 mg/mL SBECD in water): 0.08869 Molar
relative amounts of HPbCD needed to solubilize 25HC3S (ratio) ([3]; mg/mL basis, water): 6 to 1
25HC3S Solubility ([3]; water, 0 mg/mL cyclodextrin): 0.14 mg/mL
Molar of 25HC3S ([3]; water, 0 mg/mL cyclodextrin): 0.00028 Molar
pH of Filtrate Day 3 ([4]; HPbCD 0 mg/mL): 7.532
pH of Filtrate Day 3 ([4]; HPbCD 250 mg/mL): 7.842
liver function markers ALT, AST and LDH [5]: near normal
compatibility with container closure system [6]: good compatibility

From patent US20230047788A1, “COMPOSITIONS COMPRISING 5-CHOLESTEN-3, 25-DIOL, 3-SULFATE (25HC3S) OR PHARMACEUTICALLY ACCEPTABLE SALT THEREOF AND AT LEAST ONE CYCLIC OLIGOSACCHARIDE” (Virginia Commonwealth University, priority 2016, published 2023)
